According to US20150258127A1, “METHODS FOR PREVENTING ANTIPHOSPHOLIPID SYNDROME (APS)” (INSERM (INSTITUT NATIONAL DE LA SANTÉ ET DE LA RECHERCHE …, priority 2012, published 2015):
Read-outs that look alike come from different tables or passages of the source.

Tests used:
[1] = tested on: P-AKT (Ser^473) (mTORC2) in human micro vascular endothelial cells (HMEC); test: Western blot of P-AKT (Ser473) (mTORC2) in HMEC exposed to APA IgG; type: cell-based; settings: HMEC pretreated one hour with inhibitor (PP242 0.5 μM; LY294002 20 μM), then APA IgG 5 minutes
Protocol: (§1) All experiments were performed in duplicates.
(§2) Western blots were performed as previously described^28. […] Images were acquired using Fusion FX7 system (Vilber Loumart) and analysed using Bio-1D software (Vilber Loumart).

[2] = tested on: P-S6RP (mTORC1) in human micro vascular endothelial cells (HMEC); test: Western blot of P-S6RP (mTORC1) in HMEC exposed to APA IgG; type: cell-based; settings: HMEC pretreated one hour with inhibitor (PP242 0.5 μM), then APA IgG 5 minutes
Protocol: as §1, §2

[3] = Cyclosporine, tacrolimus and sirolimus serum levels in transplant recipients; type: in vivo; settings: human, 12 months post-transplantation, mean ± SEM
Protocol: (§3) The serum creatinine level was measured using a Synchron Cx4 autoanalyzer (Beckman Coulter, Villepinte, France). The glomerular filtration rate (GFR) was evaluated by iohexol clearance at 3- and 12-months post transplant as previously described^25. Cyclosporine and tacrolimus serum levels were determined by radioimmunoas say and sirolimus serum levels by high-performance liquid chromatography^26.

[4] = tested on: kidney transplant recipients with antiphospholipid antibodies (Tx APA+); test: Kidney transplant recipients cohort: vascular lesions, mGFR, allograft survival; type: in vivo, human
Source text: Briefly, the inventors studied a first group of transplant recipients with APA+ (Tx APA+, n=37) and a control group of transplants recipients without APA− (Tx APA−, n=59) engrafted during the same period. These patients were followed in the Transplant unit of Necker Hospital. All patients with functioning allograft had surveillances biopsies and measured glomerular filtration rate (mGFR) at 3- and 12-months post transplantation. Patients had similar immunosuppressive regimen consisting in steroids, purine inhibitor and calcineurine inhibitor, except for thirteen and ten patients in the Tx APA− and Tx APA+ group, respectively, that received sirolimus starting at day 0 instead of calcineurin inhibitor.
as §3
Biopsy samples and morphological analysis: Human kidney biopsies were either fixed, in alcoholic Bouin's solution (native kidneys) or in alcohol-formalin-acetic acid solution (transplant kidneys). Carotid and left anterior descending arteries from autopsy cases were fixed in formalin. All samples were then embedded in paraffin. […] Kidney biopsies were independently examined and scored by two pathologists at Necker Hospital. Lesions related to APS-nephropathy were quantified according to the usual criteria^12. For each biopsy, the number of vessels displaying fibrous intimal hyperplasia were counted in all the fields of the section, and the data were expressed as the number of damaged vessels for the total number of vascular sections. Lesions related to allograft nephropathy were evaluated according to the Banff classification^27, which takes into account glomerular, tubular and interstitial changes. […]

[5] = tested on: kidney allograft microcirculation inflammation; test: Microcirculation inflammation in kidney biopsies, Banff classification; type: in vivo, human; settings: Tx aPL+ Siro+, mean ± SEM
Source text: Biopsy samples and morphological analysis: Human kidney biopsies were either fixed, in alcoholic Bouin's solution (native kidneys) or in alcohol-formalin-acetic acid solution (transplant kidneys). Carotid and left anterior descending arteries from autopsy cases were fixed in formalin. All samples were then embedded in paraffin. Four-μm sections were stained with Periodic Acid Schiff (PAS), Masson's trichrome and hematoxyin and eosin (H&E). […] Kidney biopsies were independently examined and scored by two pathologists at Necker Hospital. Lesions related to APS-nephropathy were quantified according to the usual criteria^12. For each biopsy, the number of vessels displaying fibrous intimal hyperplasia were counted in all the fields of the section, and the data were expressed as the number of damaged vessels for the total number of vascular sections. Lesions related to allograft nephropathy were evaluated according to the Banff classification^27, which takes into account glomerular, tubular and interstitial changes. Autopsy cases were carefully examined by two pathologists at La Pitie Salpetiere Hospital. Vascular lesions, and in particular fibrous intimal hyperplasia, were searched for and characterized in all the tissues.

O=c1cc(N2CCOCC2)oc2c(-c3ccccc3)cccc12 [LY294002, 2-(4-Morpholinyl)-8-phenyl-4H-1-benzopyran-4-one]
APA-induced AKT phosphorylation / activation of the AKT pathway [1]: completely prevent

CC(C)n1nc(-c2cc3cc(O)ccc3[nH]2)c2c(N)ncnc21 [PP242]
APA-induced S6RP phosphorylation [2]: completely abolished

C=CC[C@@H]1/C=C(\C)C[C@H](C)C[C@H](OC)[C@H]2O[C@@](O)(C(=O)C(=O)N3CCCC[C@H]3C(=O)O[C@H](/C(C)=C/[C@@H]3CC[C@@H](O)[C@H](OC)C3)[C@H](C)[C@@H](O)CC1=O)[C@H](C)C[C@@H]2OC [Tacrolimus]
concentration at 12 months ([3]; Tx aPL+ Sirolimus− (n = 27), read-out: 12-Mo Tacrolimus trough levels): 10.3 ± 5.9 ng/mL | concentration at 12 months ([3]; Tx aPL− (n = 59), read-out: 12-Mo Tacrolimus trough levels): 10 ± 6 ng/mL

CO[C@H]1C[C@@H]2CC[C@@H](C)[C@@](O)(O2)C(=O)C(=O)N2CCCC[C@H]2C(=O)O[C@H]([C@H](C)C[C@@H]2CC[C@@H](O)[C@H](OC)C2)CC(=O)[C@H](C)/C=C(\C)[C@@H](O)[C@@H](OC)C(=O)[C@H](C)C[C@H](C)/C=C/C=C/C=C/1C [sirolimus, rapamycin]
concentration at 12 months ([3]; Tx aPL+ Sirolimus+ (n = 10), read-out: 12-Mo Sirolimus levels): 18 ± 9 ng/mL | concentration at 12 months ([3]; Tx aPL− (n = 59), read-out: 12-Mo Sirolimus levels): 16 ± 2 ng/mL | measured glomerular filtration rate (mGFR) ([4]; Tx APA+ Siro+ patients, 12 months post transplantation, 39.6±14.6 in APA+ Siro−): 56 ± 10.8 mL/min | death-censored allograft survival ([4]; Tx aPL+ recipients, 12% without sirolimus): 70% | allograft survival rate ([4]; transplant recipients with antiphospholipid antibodies, 8% without sirolimus, up to 144 months post transplantation): 70% | C4d (C4 deposits), Banff score ([5]; Month 3 post-Tx): 0.2 ± 0.4 | g (Glomerulitis), Banff score ([5]; Month 3 post-Tx): 0.1 ± 0.4 | ptc (Peritubular Capillaritis), Banff score ([5]; Month 3 post-Tx): 0.1 ± 0.4 | Banff microcirculation inflammation score ([5]; Month 12 post-Tx): 0.1 ± 0.3 | C4d (C4 deposits), Banff score ([5]; Month 12 post-Tx): 0.1 ± 0.3 | ptc (Peritubular Capillaritis), Banff score ([5]; Month 12 post-Tx): 0.1 ± 0.3
